Source: PMC8080067, “Tight binding of cytochrome b5 to cytochrome P450 17A1 is a critical feature of stimulation of C21 steroid lyase activity and androgen synthesis” (The Journal of Biological Chemistry, 2021)
Where a chain is given by its changes, count along the chain named. Like-named read-outs stand apart in the source and are kept apart here.

Experiments:
Test in all cases: Steady-state kinetics of steroid 17α-hydroxylation and lyase reactions, reconstituted system
[1] = molecular target: WT P450 17A1 (Homo sapiens, UniProt P05093)
Sequence of WT P450 17A1 (P05093 whole entry): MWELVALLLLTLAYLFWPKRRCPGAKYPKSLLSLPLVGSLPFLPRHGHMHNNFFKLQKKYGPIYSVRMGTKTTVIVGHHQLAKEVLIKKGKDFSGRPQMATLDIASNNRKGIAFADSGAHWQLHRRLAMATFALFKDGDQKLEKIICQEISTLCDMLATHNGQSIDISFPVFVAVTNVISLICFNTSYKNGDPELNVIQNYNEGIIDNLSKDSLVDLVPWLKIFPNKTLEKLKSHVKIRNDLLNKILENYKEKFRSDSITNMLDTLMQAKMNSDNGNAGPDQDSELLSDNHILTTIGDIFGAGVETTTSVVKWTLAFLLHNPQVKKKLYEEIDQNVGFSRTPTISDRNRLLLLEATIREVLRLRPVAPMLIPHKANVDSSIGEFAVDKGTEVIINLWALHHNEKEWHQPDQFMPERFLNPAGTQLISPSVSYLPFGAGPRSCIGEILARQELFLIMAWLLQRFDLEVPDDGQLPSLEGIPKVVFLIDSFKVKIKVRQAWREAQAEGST
Sequence of WT P450 17A1 (P00167 whole entry partner): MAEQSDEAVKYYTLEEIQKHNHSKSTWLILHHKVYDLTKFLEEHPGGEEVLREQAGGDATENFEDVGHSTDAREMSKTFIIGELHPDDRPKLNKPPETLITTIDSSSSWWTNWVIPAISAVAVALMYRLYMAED
Description: (§1) P450 catalytic activity assays to measure steroid hydroxylation and lyase reactions were carried out as described previously ([23], [37], [64]).
(§2) The reactions were initiated by adding an NADPH-regenerating system (final concentrations of 15 mM glucose 6-phosphate, 1.5 mM NADP^+, and 1 IU ml^−1 glucose 6-phosphate dehydrogenase) ([75]) and terminated by quenching and extracting with 2.0 ml CH2Cl2. Aliquots of the organic phases were dried and then dissolved in 100 μl of a CH3CN/H2O (1:1, v/v) mixture. […] The extraction procedure was then repeated, and the (Δ^4) reaction products were analyzed in a Waters Acquity UPLC system using a BEH C18 octadecylsilane column (2.1 mm × 100 mm, 1.7 μm). The reaction products were resolved using a mobile phase composed of solvents A (70% CH3OH, 30% H2O, v/v) and B (CH3CN), at a flow rate of 0.2 ml min^−1. The mobile phase linear gradient proceeded as follows: 0 to 1 min, 5% B; 4 min, 30% B; 4.5 min, 40% B; 4.55 to 6.75 min, 95% BA; and 7 to 10 min, 5% B. The reaction products were identified by coelution with commercial standards and quantified by the A243 peak areas. Steady-state kinetic parameters were estimated using nonlinear regression of hyperbolic fits in GraphPad Prism software, with equations used for kcat and the specificity constant kcat/Km ([76]): Y = (ksp ∗ X)/(1 + (ksp ∗ X/kcat)) and then deriving Km by division.

[2] = molecular target: T1, P450 17A1 R358Q variant (Homo sapiens, UniProt P05093, R358Q)
T1 sequence (P05093 1-508 R358Q): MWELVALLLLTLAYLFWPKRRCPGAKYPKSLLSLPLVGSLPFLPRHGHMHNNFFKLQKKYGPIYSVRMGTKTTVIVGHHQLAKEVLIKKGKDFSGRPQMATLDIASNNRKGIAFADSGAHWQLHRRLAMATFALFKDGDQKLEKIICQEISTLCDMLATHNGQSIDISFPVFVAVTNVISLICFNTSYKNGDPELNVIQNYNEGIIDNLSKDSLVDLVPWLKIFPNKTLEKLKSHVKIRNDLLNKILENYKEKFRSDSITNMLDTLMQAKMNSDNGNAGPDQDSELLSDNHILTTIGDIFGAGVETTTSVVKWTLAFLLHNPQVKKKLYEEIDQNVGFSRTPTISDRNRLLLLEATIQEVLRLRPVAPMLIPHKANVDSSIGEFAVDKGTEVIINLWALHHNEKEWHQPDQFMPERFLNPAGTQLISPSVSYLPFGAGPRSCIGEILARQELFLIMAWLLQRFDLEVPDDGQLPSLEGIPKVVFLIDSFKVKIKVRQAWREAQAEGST
Description: as §1
as §2, with “The mobile phase linear gradient proceeded as follows: 0 to 1 min, 5% B; 4 min, 30% B; 4.5 min, 40% B; 4.55 to 6.75 min, 95% BA; and 7 to 10 min, 5% B. The reaction products were identified by coelution with commercial standards and quantified by the A243 peak areas.” left out

[3] = molecular target: T2, P450 17A1 E305G variant (Homo sapiens, UniProt P05093, E305G)
T2 sequence (P05093 1-508 E305G): T1 sequence (P05093 1-508 R358Q) with E305G, Q358R
Description: as §1
as §2, with “The mobile phase linear gradient proceeded as follows: 0 to 1 min, 5% B; 4 min, 30% B; 4.5 min, 40% B; 4.55 to 6.75 min, 95% BA; and 7 to 10 min, 5% B. The reaction products were identified by coelution with commercial standards and quantified by the A243 peak areas.” left out

[4] = molecular target: T3, P450 17A1 R347H variant (Homo sapiens, UniProt P05093, R347H)
T3 sequence (P05093 1-508 R347H): T1 sequence (P05093 1-508 R358Q) with R347H, Q358R
Description: as §1
as §2, with “The mobile phase linear gradient proceeded as follows: 0 to 1 min, 5% B; 4 min, 30% B; 4.5 min, 40% B; 4.55 to 6.75 min, 95% BA; and 7 to 10 min, 5% B. The reaction products were identified by coelution with commercial standards and quantified by the A243 peak areas.” left out

[5] = lyase reaction (conversion to androstenedione or DHEA)

Row | % WT (kcat/Km) [1] | % WT (kcat/Km) ([2]; 17α-hydroxylation) | % WT (kcat/Km) ([3]; 17α-hydroxylation) | % WT (kcat/Km) ([4]; 17α-hydroxylation) | Structure (SMILES) | % WT (kcat/Km) ([1]; lyase reaction (conversion to androstenedione or DHEA), WT) | % WT (kcat/Km) [2, 5] | % WT (kcat/Km) [3, 5] | % WT (kcat/Km) [4, 5]
1 | 100% | 11% | 8% | 4% | CC(=O)[C@H]1CC[C@H]2[C@@H]3CCC4=CC(=O)CC[C@]4(C)[C@H]3CC[C@]12C [Progesterone] |  |  |  | 
2 | 100% | 12% | 0.7% | 19% | CC(=O)C1CCC2C3CC=C4C[C@@H](O)CC[C@]4(C)C3CC[C@]12C (stereo partly drawn) [Pregnenolone] |  |  |  | 
3 |  |  |  |  | CC(=O)[C@@]1(O)CCC2C3CC=C4C[C@@H](O)CC[C@]4(C)C3CC[C@@]21C (stereo partly drawn) [17α-OH pregnenolone] | 100% | 0.6% | 0.7% | 1.1%
